Source: PMC8699718, “A structurally conserved site in AUP1 binds the E2 enzyme UBE2G2 and is essential for ER-associated degradation” (PLoS Biology, 2021)
Ends that are not written are not given here.

System: NHK (Null Hong Kong variant of alpha1-antitrypsin)
Test: CHX chase: NHK degradation in HT1080 AUP1 KO cells
Assay type: cell-based, human
Protocol: Fig 1 The G2BR of AUP1 is required for ERAD of NHK. (A) HT1080 or cells in which HRD1 was knocked out by CRISPR/Cas-9 (HRD1 KO) were transfected with plasmid encoding carboxyl-terminally HA-tagged NHK. Cells were treated with CHX for the indicated times to inhibit protein synthesis and NHK-HA degradation monitored by western blot. GFP and HSP60 serve as transfection efficiency and gel loading controls, respectively. (B) HT1080 or cells in which either AUP1 or gp78 was knocked out (AUP1 KO or gp78 KO) were transfected with NHK-HA and their degradation assessed. (C) AUP1 KO cells were transfected with NHK-HA and empty vector or plasmid encoding carboxyl-terminally FLAG-tagged AUP1 and NHK degradation assessed. (D) Indicated cells were transfected with plasmid encoding carboxyl-terminally MYC-tagged INSIG-1 and assessed for INSIG-1 degradation. (E) Schematic representation of AUP1 in the ER membrane and deletion mutants used in subsequent experiments. Amino acid residues are numbered spanning each domain. (F) AUP1 KO cells were transfected with NHK-HA and plasmids encoding the indicated FLAG-tagged AUP1 WT or deletion mutants and assessed for NHK degradation. (G) HEK293 (Parental) or HEK293 AUP1 KO cells were assessed for degradation of NHK-HA. (H) HEK293 AUP1 KO cells were assessed for NHK-HA degradation as in (F). Markers represent apparent molecular weight in kDa. The data underlying this figure can be found in S1 Data. aa, amino acid; AUP1, ancient ubiquitous protein 1; CHX, cycloheximide; ER, endoplasmic reticulum; ERAD, endoplasmic reticulum–associated degradation; G2BR, UBE2G2 Binding Region; KO, knockout; NHK, Null Hong Kong; WT, wild type.
Fig 6 Disruption of UBE2G2:G2BR^AUP1 interaction abrogates AUP1 function in cells. (A) GST or indicated GST-AUP1 fusions (aa 292 to 410, expression shown in Coomassie-stained gel) were immobilized on glutathione beads and binding to ^35S-UBE2G2 was assessed as in Fig 3A. Mutations include 2A (R382A/Q383A), 2E (R382E/Q383E), and 5E (R382E/Q383E/K390E/R398E/R400E). (B) AUP1 KO cells were transfected with NHK-HA and forms of full-length AUP1-FLAG with the indicated point mutations from (A) and NHK degradation assessed by CHX chase. (C) Binding assay performed as in (A) with AUP1 mutants predicted to disrupt hydrophobic interactions with UBE2G2. (D) Cellular assay performed as in (B) with AUP1-FLAG mutants that disrupt interactions with UBE2G2 in vitro in (C). The data underlying this figure can be found in S1 Data. aa, amino acid; AUP1, ancient ubiquitous protein 1; CHX, cycloheximide; G2BR, UBE2G2 Binding Region; KO, knockout; WT, wild type.
Fig 8 Recruitment of UBE2G2 to the ER membrane and activation by G2BR^AUP1 is required for ERAD. (A) HT1080 or AUP1 KO cells were transfected with NHK-HA and either empty vector or MYC-UBE2G2 and NHK turnover assessed by CHX chase. (B) AUP1 KO cells were transfected with NHK-HA and GFP fusions of either a scrambled G2BR sequence (SCR) or G2BR^AUP1 and NHK turnover and levels of endogenous UBE2G2 assessed. Luciferase and β-actin served as transfection efficiency and gel loading controls, respectively. (C) AUP1 KO cells were transfected with NHK-HA, MYC-UBE2G2, and either GFP-SCR or GFP-G2BR^AUP1 and NHK turnover assessed. (D) Membrane fractionation was performed on HT1080 or AUP1 KO cells transfected with either empty vector or AUP1-FLAG and localization of UBE2G2 assessed by western blotting. Localization of β-actin (cytosol) and Calnexin (ER membrane) were used as controls for cytosolic (C) and membrane (M) fractions, respectively. (E) Membrane fractionation of AUP1 KO cells transfected with either MYC-UBE2G2 or TM-UBE2G2. (F) HT1080 cells were transfected with TM-UBE2G2 and its localization assessed by confocal microscopy. Images shown are from an optical section after deconvolution. HA-tagged UBE2J2, an ER-localized E2, serves as an ER marker. […]

## GFP-G2BR^AUP1: GFP fusion of AUP1 aa 378 to 404 (SSWARQESLQERKQALYEYARRRFTER; also: GFP fusion; UniProt Q9Y679 378-404, looked up, fragment)
GFP fusion overexpressed without UBE2G2, HT1080 AUP1 KO
  NHK degradation, soluble G2BR alone: insufficient to reconstitute NHK degradation
GFP-G2BR^AUP1 co-expressed with MYC-UBE2G2, HT1080 AUP1 KO
  NHK degradation, soluble G2BR with UBE2G2: did not restore NHK degradation
GFP-G2BR^AUP1 co-expressed with TM-UBE2G2, HT1080 AUP1 KO
  NHK degradation, soluble G2BR with TM-UBE2G2: fully restored

B1: UBE2G2: ERAD ubiquitin-conjugating enzyme (E2); purified in vitro, N-terminally MYC-tagged in cells (protein)
chain: MAGTALKRLMAEYKQLTLNPPEGIVAGPMNEENFFEWEALIMGPEDTCFEFGVFPAILSFPLDYPLSPPKMRFTCEMFHPNIYPDGRVCISILHAPGDDPMGYESSAERWSPVQSVEKILLSVVSMLAEPNDESGANVDASKMWRDDREQFYKIAKQIVQKSLGL
UBE2G2 form transfected without G2BR, HT1080 AUP1 KO
  NHK degradation, UBE2G2 overexpression: did not restore NHK degradation
